This is an account of results in PubChem BioAssay AID1963422 (Molecular Pharmacology Branch, DTP, NCI, 2024).

Values joined by “and” are separate entries in the source; they are usually repeats but may differ in a detail not shown here. Equal values may be shown once.

The subject of the assay is 463943-066-T-J2-PDC complex spheroid growth. As to the kind of experiment: Anticancer human tumor 463943-066-T-J2-PDC patient-derived colon adenocarcinoma cell line growth inhibition [Asc]. The settings on record: for viability, T/C: stronger effect = lower value. On the procedure:
Multicellular complex tumor spheroid response to apoptosis pathway targeting inhibitors Alrizomadlin, Pelcitoclax, and Dasminapant in combination with a variety of drugs and investigational agents in selected tumor cell lines
The MDM2 inhibitor alrizomadlin, the Bcl-2/Bcl-xL inhibitor pelcitoclax, and the IAPs inhibitor dasminapant were evaluated both individually and in combination with standard of care and investigational anticancer small molecules within a complex spheroid model of solid tumors. . Complex spheroids include a stromal component modeled by human endothelial cells (HUVEC) and fibroblasts modeled by human mesenchymal stem cells (MSCs). The concentration ranges selected for each drug and investigational agent were based upon clinically achievable concentrations if the clinical Cmax of the agent was known.
Compounds. The drugs and investigational agents: alrizomadlin (APG-115; NSC831270), pelcitoclax (APG-1252; NSC835773), dasminapant (APG-1387;NSC834197), TAK-243 (NSC785004), copanlisib (NSC809693), olaparib (NSC753686), talazoparib (NSC767125), cobimetinib (NSC 768068), eltanexor (KPT-8602, NSC 794443), abemaciclib (NSC 768073), sotorasib (NSC818433), adagrasib (NSC 831453), MRTX-1133 (NSC 836407), Iadademestat (ORY1001, NSC 806812), and RMC-4630 (NSC839698), were obtained from the NCI Developmental Therapeutics Program Chemical Repository. The FDA-approved anticancer drug set is available from the Developmental Therapeutics Program at https://dtp.cancer.gov/organization/dscb/obtaining/available plates.htm. […] The stock solutions were prepared in dimethyl sulfoxide (DMSO, Sigma-Aldrich, St. Louis, MO, cat. D2650) at 800-fold the tested concentration and stored at -70 degrees C prior to their use. All drugs and investigational agents were tested over a range starting from a high concentration at or near the clinical Cmax and decreasing in half-log increments. If the clinical Cmax for an agent had not been determined, the highest concentration tested was 10 microM.
The patient-derived cancer (PDC) cell lines include five colon adenocarcinomas: 186277-243-T-J2-PDC, 616215-338-R-J1-PDC, 439559-082-T-J2-PDC, 463943-066-T-J2-PDC, and 519858-162-T-J1-PDC; three pancreatic carcinomas: 323965-272-R-J2-PDC, 521955-158-R6-J3-PDC, and 521955-158-R2-J5-PDC; two uterine sarcomas: 327498-152-R-J2-PDC and 993429-296-R-J1-PDC; two rhabdomyosarcomas: 755483-174-R-J1-PDC and 772245-204-R-J1-PDC; two soft tissue sarcomas: 126254-015-R-J1-PDC and 494315-158-R-J1-PDC; two malignant fibrous histiocytomas: 317291-083-R-J1-PDC and 596521-263-R-J1-PDC; two breast carcinomas: 171881-019-R-J1-PDC and 885512-296-R-J2-PDC; and one ovarian carcinoma: 6556581-035-R-J-PDC were obtained from the NCI PDMR, (https://pdmr.cancer.gov). The established cell lines HSSY-2 synovial sarcoma (RRID:CVCL 8719), SYO-1 synovial sarcoma (RRID:CVCL_7146), MPNST malignant peripheral neural sheath tumor were obtained from the Sloan Kettering Institute. The following established cell lines were purchased from the American Type Culture Collection (ATCC, Manassas, VA), Sor the received from the NCI repository:, PANC-1 pancreatic carcinoma (CRL-1469, RRID:CVCL_0480), OVCAR-5 ovarian carcinoma (RRID:CVCL_1628), OVCAR-8 ovarian carcinoma (RRID:CVCL_1629), , MCF-7 breast carcinoma (CRL-12584, RRID:CVCL_0031), MDA-MB-231 breast carcinoma (CRL-12532, RRID:CVCL_0062), NCI-H1876 small cell lung carcinoma (CRL-5902, RRID:CVCL_1503), NCI-H510A small cell lung carcinoma (HTB-184, RRID:CVCL_1565), NCI-H1417 (CRL-5869, RRID:CVCL_1469), and NCI-H196 small cell lung carcinoma (CRL-5823, RRID:CVCL_1509). Dr. Peter Houghton (Greehey Children's Cancer Research Institute, University of Texas Health Science Center, San Antonio, TX) provided Rh-18 rhabdomyosarcoma (RRID:CVCL_1659). Pooled donor human umbilical vein endothelial cells (HUVEC, Lonza, cat. CC-2519) and human mesenchymal stem cells (hMSC, Lonza, cat. PT-2501) were purchased from Lonza (Walkersville, MD).
Cell Culture. […]
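Also: compound exposure lasted 7 days.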
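For viability, T/C in this document: 100% = DMSO vehicle control wells.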

Regarding `CCN1C(C(=O)NC23CCC(C(=O)O)(CC2)CC3)C(c2cccc(Cl)c2F)C2(C(=O)Nc3cc(Cl)ccc32)C12CCCCC2` (stereo not given), the viability, T/C is 98.6% [middle of 8 runs] (compound 0.00949 µM); 96.1% [middle of 8 runs] (compound 0.03 µM); 88.7% [middle of 8 runs] (compound 0.0949 µM); 82.9% [middle of 8 runs] (compound 0.3 µM); 76.8% [middle of 8 runs] (compound 0.949 µM); 77.5% [middle of 8 runs] (compound 3 µM). Also, the IC50 runs as follows: (compound alone, run of 11/07/2022) more than 3000 nM; (curve of compound) more than 3000 nM.

With `CCN1CCN(Cc2ccc(Nc3ncc(F)c(-c4cc(F)c5nc(C)n(C(C)C)c5c4)n3)nc2)CC1`, the viability, T/C runs as follows: (compound 0.00316 µM) 102% and 101% and 107%; (compound 0.01 µM) 99.4% and 93.9% and 78.5%; (compound 0.0316 µM) 100% and 108% and 97.6%; (compound 0.1 µM) 98.9% and 96% and 104%; (compound 0.316 µM) 113% and 108% and 115%; (compound 1 µM) 119% and 120% and 125%. For the same molecule, the IC50 (curve of compound) was more than 1000 nM.

On to `CNC(C)C(=O)NC1CN(S(=O)(=O)c2cccc(S(=O)(=O)N3CCC4CCC(C(=O)NC(c5ccccc5)c5ccccc5)N4C(=O)C(NC(=O)C(C)NC)C3)c2)CCC2CCC(C(=O)NC(c3ccccc3)c3ccccc3)N2C1=O` (stereo not given), for which the viability, T/C is, setting by setting: (compound 0.00316 µM) 99.1% [middle of 6 runs]; (compound 0.01 µM) 94.9% [middle of 6 runs]; (compound 0.0316 µM) 100% [middle of 6 runs]; (compound 0.1 µM) 99.2% [middle of 6 runs]; (compound 0.316 µM) 96.8% [middle of 6 runs]; (compound 1 µM) 92.2% [middle of 6 runs]. Further, the IC50 (compound alone, run of 11/15/2022) was more than 1000 nM and the IC50 (curve of compound) is more than 1000 nM.

For the molecule `COc1c(OCCCN2CCOCC2)ccc2c3n(c(=NC(=O)c4cnc(N)nc4)nc12)CCN3`, the viability, T/C was 94.5% and 96.1% (compound 0.00316 µM); 90.6% and 82% (compound 0.01 µM); 77.9% and 77.5% (compound 0.0316 µM); 65.9% and 65.1% (compound 0.1 µM); 59% and 58.9% (compound 0.316 µM); 41.5% and 44.9% (compound 1 µM). Besides, under “curve of compound”, the IC50 was 524 nM and 659 nM.

Regarding `Cc1nc(N2CCC3(CC2)COC(C)C3N)c(CO)nc1Sc1ccnc(N)c1Cl` (stereo not given), the viability, T/C was 97.7% and 107% (2×) (compound 0.00949 µM); 88.5% and 90.2% and 90.5% (compound 0.03 µM); 86.5% and 88.5% and 79.4% (compound 0.0949 µM); 87.4% and 87% and 82% (compound 0.3 µM); 87% and 81.9% and 80.6% (compound 0.949 µM); 70.8% (2×) and 71.8% (compound 3 µM). The IC50 (curve of compound) was more than 3000 nM.

`Cn1ncnc1[C@H]1c2n[nH]c(=O)c3cc(F)cc(c23)N[C@@H]1c1ccc(F)cc1`: the viability, T/C runs as follows: (compound 0.000316 µM) 98.9% and 88% and 106%; (compound 0.001 µM) 91.2% and 98.6% and 99.5%; (compound 0.00316 µM) 103% and 107% and 104%; (compound 0.01 µM) 96.4% and 102% (2×); (compound 0.0316 µM) 102% and 103% (2×); (compound 0.1 µM) 99.3% and 97.9% and 94%. Moreover, the IC50 (curve of compound) is more than 100 nM.

`NC(=O)C(=Cn1cnc(-c2cc(C(F)(F)F)cc(C(F)(F)F)c2)n1)c1cncnc1`: the viability, T/C runs as follows: (compound 0.000949 µM) 96.5% and 87.3% and 115%; (compound 0.003 µM) 84.7% and 83.7% and 102%; (compound 0.00949 µM) 92.6% and 85.6% and 96.3%; (compound 0.03 µM) 87.8% and 84.8% and 87.7%; (compound 0.0949 µM) 83.6% and 81.3% and 79.4%; (compound 0.3 µM) 73.8% and 73.3% and 60.4%. For the same molecule, where the note is “curve of compound”, the IC50 is more than 300 nM.

As for `NC1CCC(NC2CC2c2ccccc2)CC1` (stereo not given), the viability, T/C reads like this: (compound 0.000316 µM) 89.8% and 86.8%; (compound 0.001 µM) 94.3% and 87.5%; (compound 0.00316 µM) 87.3% and 94.4%; (compound 0.01 µM) 92.6% and 95.7%; (compound 0.0316 µM) 94.2% and 88.1%; (compound 0.1 µM) 86.1% and 94.9%. For the same molecule, where the note is “curve of compound”, the IC50 was more than 100 nM.

For `O=C(c1ccc(F)c(F)c1Nc1ccc(I)cc1F)N1CC(O)([C@@H]2CCCCN2)C1`, the viability, T/C reads like this: (compound 0.00316 µM) 88.3% and 95.1% and 104%; (compound 0.01 µM) 79.2% and 78% (2×); (compound 0.0316 µM) 71.1% and 60.7% and 77.5%; (compound 0.1 µM) 57.1% and 58.9% and 75.6%; (compound 0.316 µM) 39.7% and 42% and 51.9%; (compound 1 µM) 29% and 29.9% and 35.8%. Also, the IC50 (curve of compound) was 159 nM and 140 nM and 397 nM.
